One series has as its target T1, xCT (SLC7A11) (Homo sapiens, UniProt Q9UPY5).
T1 construct: NCI-H460 tumor cells were co-incubated with the F-18 labeled tracer and several cold derivatives; endogenous in cells; host or cells: NCI-H460 tumor cells
T1 sequence (Q9UPY5 1-501): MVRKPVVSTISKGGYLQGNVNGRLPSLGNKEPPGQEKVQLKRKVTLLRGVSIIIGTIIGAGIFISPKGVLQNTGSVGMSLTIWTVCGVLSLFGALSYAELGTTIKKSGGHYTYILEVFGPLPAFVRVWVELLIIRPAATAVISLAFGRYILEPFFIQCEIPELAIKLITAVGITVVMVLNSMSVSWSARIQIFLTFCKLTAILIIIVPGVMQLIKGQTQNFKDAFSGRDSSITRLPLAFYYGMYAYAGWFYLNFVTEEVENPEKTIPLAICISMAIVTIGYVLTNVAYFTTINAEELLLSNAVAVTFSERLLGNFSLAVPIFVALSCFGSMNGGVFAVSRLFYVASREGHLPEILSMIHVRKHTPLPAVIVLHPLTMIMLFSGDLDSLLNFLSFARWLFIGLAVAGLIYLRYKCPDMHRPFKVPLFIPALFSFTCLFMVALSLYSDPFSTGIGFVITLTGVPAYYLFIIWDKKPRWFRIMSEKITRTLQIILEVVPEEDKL
T1 sequence (P08195 1-529 partner): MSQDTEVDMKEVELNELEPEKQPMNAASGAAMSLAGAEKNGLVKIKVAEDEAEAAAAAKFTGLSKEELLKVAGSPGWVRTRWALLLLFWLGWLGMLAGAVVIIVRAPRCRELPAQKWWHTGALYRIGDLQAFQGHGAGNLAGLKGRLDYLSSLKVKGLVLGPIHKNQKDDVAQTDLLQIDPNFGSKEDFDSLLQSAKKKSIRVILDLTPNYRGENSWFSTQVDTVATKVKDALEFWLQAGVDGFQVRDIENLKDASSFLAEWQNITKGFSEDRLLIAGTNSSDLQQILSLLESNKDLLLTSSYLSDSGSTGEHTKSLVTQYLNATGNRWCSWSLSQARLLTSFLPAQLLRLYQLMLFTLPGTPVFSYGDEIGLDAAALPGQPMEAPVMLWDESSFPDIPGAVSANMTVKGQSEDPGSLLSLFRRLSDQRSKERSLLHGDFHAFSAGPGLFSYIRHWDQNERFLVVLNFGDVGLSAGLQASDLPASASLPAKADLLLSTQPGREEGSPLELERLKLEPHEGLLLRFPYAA
Briefly: Competition profile indicating uptake via xCT (SLC7A11). The format is cell-based. Conditions: NCI-H460 cells; for reduction of [^18F]-12 uptake by excess competitor: competitor 1 mM. How it is done:
For determination of the responsible uptake mechanism, NCI-H460 tumor cells were co-incubated with the F-18 labeled tracer and several cold derivatives. These derivatives were used at a concentration of 1 mM, which is a large excess compared to the tracer. L-Glutamic acid, L-cystine, Carboxyphenylglycine (CPG) were used as competitors. In addition, also D-Glutamic acid, as well as L-aspartic acid and D-aspartic acid were used in this competition experiments. […] The same experiments were performed using [^18F]-1, [^18F]-4, [^18F]-9, [^18F]-8, [^18F]-25 and [^18F]-22.

In series [1] the test system is NCI-H460 (human NSCLC) cells. Briefly: In vitro cell-uptake study: blocking of radiolabeled glutamate derivative uptake. It is filed as cell-based. The settings on record: compound 1 mM, 30 minutes, mean ± SD, without compound = 100%. How it is done: The ability of compounds from the present invention to compete with radiolabeled glutamate derivatives for uptake into tumor cells was examined. NCI-H460 (human NSCLC) cells, grown adherently in 48 well plates were used for these competition-experiments. Approximately 100.000 cells were co-incubated in PBS-buffer containing 0.1% BSA with a radiolabeled Glutamic acid derivative and several compounds, which were used at a concentration of 1 mM for 30 minutes. After this time, the cell bound radioactivity was determined.

Series [2] has as its system NCI-H460 tumor. Briefly: In vivo biodistribution in NCI-H460 tumor bearing mice. The settings on record: for T/Blood / T/Muscle: 1 h post injection. How it is done: (§1) To test the pharmacokinetic properties of compounds from the present invention, all F18-labeled compounds were examined by biodistribution studies in NCI-H460 tumor bearing mice. Female NMRI (nu/nu) mice were inoculated with 5×10^6 NCI-H460 tumor cells 8 to 10 days before the biodistribution studies. 185 kBq of activity of the fluorinated compound was injected and at least n=3 mice were used for every time point. After injection of the F18-labeled compound, mice were sacrificed at defined time-points. All organs were removed and radioactivity was determined using a γ-counter.
To compare the tumor uptake and retention of radioactivity of different ^18F-labeled derivatives from the present invention, biodistribution studies were performed in NCI-H460 tumor bearing NMRI (nu/nu) mice as described above.
To compare the kidney clearance of several ^18F-labeled derivatives from the present invention, biodistribution studies were performed in NCI-H460 tumor bearing female NMRI (nu/nu) mice as described above. […] After 2 h p.i., less than 1% ID/g can be found in the kidneys.
For comparison of pancreas uptake and clearance of several ^18F-labeled derivatives from the present invention, biodistribution studies were performed in NCI-H460 tumor bearing NMRI (nu/nu) mice as described above. […] After 2 h p.i., less than 2% ID/g can be found in the pancreas.
as §1, with “and” for “for every time point. After injection of the F18-labeled compound, mice were”, “time-points raning from 15 min pi up to 2 h p.i.” for “time-points.”, “γ-counter. […] High tumor uptake values of >3% ID/g were obtained with various compounds from the present invention.” for “γ-counter.”

Series [3] deals with NCI-H460 (human NSCLC) cells. Nature of the series: Cell uptake studies: 30 min uptake in H460 cells. The format is cell-based. Conditions: 0.25 MBq tracer, PBS 0.1% BSA. How it is done: For determination of the biological activity, the F18 labeled derivatives were used as tracers in cell uptake experiments. NCI-H460 (human NSCLC) cells, grown adherently in 48 well plates were used for these uptake-experiments. Approximately 100.000 cells were incubated with 0.25 MBq of the tracers for 30 min in PBS-buffer containing 0.1% BSA. After this time, the cell-bound radioactivity was determined using a γ-counter.

The test system of series [4] is NCI-H460 tumor. Nature of the series: PET imaging in NCI-H460 tumor bearing nude-rats. It is filed as in vivo. The settings on record: PET ROI analysis, 1 h p.i. As to the method: c) Beside PET-imaging studies in mice, also the imaging properties of [^18F]-12 in rats were examined. NCI-H460 tumor cells were inoculated into the right flank of nude-rats (RH-Foxn1 nu/nu) 8 to 10 days before the PET study. PET images were acquired at 60 min after injection of approximately 10 MBq for 10 minutes. The H460 tumor was nicely visible (0.9% ID/g as determined by ROI analysis). Beside some minor uptake into the liver and kidneys due to the excretion of the compound, no uptake into other non-target tissues was observed.
To test the imaging properties, compounds from the present invention were evaluated in PET imaging studies using tumor bearing rats. NCI-H460 tumor cells were inoculated into the right flank of nude-rats (RH-Foxn1 nu/nu) 8 to 10 days before the PET study. PET images were acquired at 60 min after injection of approximately 10 MBq for 10 minutes. After the imaging study, region-of-interest (ROI) analysis was performed and activity in tumor, liver and kidney was determined. […] High tumor uptake values of >1% […] in this rat model were obtained with various compounds from the present invention. A favorable clearance profile of all compounds enables excellent tumor detection in PET imaging studies in tumor bearing rats.

As to `N[C@H](CCC(=O)O)C(=O)O` [D-Glutamic acid, reference compound], the “reduction of [^18F]-12 uptake by excess competitor” value (“reduction of [^18F]-12 uptake” for short) on xCT (SLC7A11) was “less effective competitors”.
As for `N[C@H](CC(=O)O)C(=O)O` [D-aspartic acid, reference compound], the “reduction of [^18F]-12 uptake” value on xCT (SLC7A11) is recorded as “less effective competitors”.
`N[C@@H](C[C@H](Cc1ccc(OCCF)cc1)C(=O)O)C(=O)O` [Example 1, (4S)-4-[4-(2-Fluoroethoxy)benzyl]-L-glutamic acid]: in series [1], the “Uptake of radiolabeled glutamate-derivative (% of control)” value (“Uptake … (% of control)” below) is recorded as 5.0 ± 0.2 % of control.
The same measure, in the same setting: the result for `N[C@@H](C[C@H](Cc1ccc(OCCCF)cc1)C(=O)O)C(=O)O` [Example 4, (4S)-4-[4-(3-Fluoropropoxy)benzyl]-L-glutamic acid] reads 3.0 ± 0.1 % of control; that for `N[C@@H](CC(Cc1ccc(CCCF)cc1)C(=O)O)C(=O)O` (stereo partly drawn) [Example 9, 4-[4-(3-Fluoropropyl)benzyl]-L-glutamic acid], 14.2 ± 1.0 % of control.
Regarding `N[C@@H](CCC(Cc1ccc(OCCF)cc1)C(=O)O)C(=O)O` (stereo partly drawn) [Example 12, (2S)-2-Amino-5-[4-(2-Fluoroethoxy)benzyl]-hexanedioic acid], in series [1], the “Uptake … (% of control)” value is 3.9 ± 0.3 % of control.
On the same count and under the same terms, the result for `N[C@@H](CC(CCCc1ccc(CCCF)cc1)C(=O)O)C(=O)O` (stereo partly drawn) [Example 19, 4-{3-[4-(3-Fluoropropyl)phenyl]propyl}-L-glutamic acid] reads 6.6 ± 1.6 % of control; that for `N[C@H](C[C@@H](Cc1ccc(OCCF)cc1)C(=O)O)C(=O)O` [Example 23, (4R)-4-[4-(2-Fluoroethoxy)benzyl]-D-glutamic acid], 43.8 ± 3.2 % of control; that for `N[C@H](C[C@@H](Cc1ccc(OCCCF)cc1)C(=O)O)C(=O)O` [Example 24, (4R)-4-[4-(3-Fluoropropoxy)benzyl]-D-glutamic acid], 36.5 ± 3.8 % of control.
Take `N[C@@H](C[C@H](CCCc1ccc(OCCF)cc1)C(=O)O)C(=O)O` [Example 25, (4S)-4-{3-[4-(2-Fluoroethoxy)phenyl]propyl}-L-glutamic acid]: in series [1], the “Uptake … (% of control)” value is reported as 20.1 ± 0.4 % of control.
`N[C@@H](CC(=O)O)C(=O)O` [L-aspartic, L-aspartic acid, reference compound]: the “reduction of [^18F]-12 uptake” value at xCT (SLC7A11) is listed as “less effective competitors”.
As for `N[C@@H](CSSC[C@H](N)C(=O)O)C(=O)O` [L-cystine, reference compound], the “Uptake … (% of control)” value in series [1] is listed as 10.7 ± 0.7 % of control.
In the case of `N[C@@H](CCC(=O)O)C(=O)O` [L-glutamic acid, L-glutamate, reference compound], the “Uptake … (% of control)” value in series [1] is listed as 26.1 ± 0.3 % of control.
With `N[C@@H](CC(Cc1ccc(NCCC[18F])cc1)C(=O)O)C(=O)O` (stereo partly drawn) [[^18F]-8, 4-{4-[(3-[^18F]Fluoropropyl)amino]benzyl}-L-glutamic acid], in the series on NCI-H460 tumor [2], the “Kidney (% ID/g at 1 h p.i.)” value is recorded as 2.8 ± 0.6 % ID/g, the “Liver (% ID/g at 1 h p.i.)” value was determined as 1.3 ± 0.3 % ID/g, the “Pancreas (% ID/g at 1 h p.i.)” value amounted to 2.2 ± 0.4 % ID/g and the “Tumor (% ID/g at 1 h p.i.)” value worked out at 4.6 ± 0.9 % ID/g. Besides, in the series on NCI-H460 tumor [2], the “Urine (% ID at 1 h p.i.)” value worked out at 92.7 ± 3.8 % ID, the T/Blood is 26.8 and the T/Muscle is 46.3. On xCT (SLC7A11) (co-incubation with 1 mM cold competitors), the “competition profile / uptake mechanism of the tracer” value is on record as “identical competition profile”. The “30 min uptake into H460 cells [%/100.000 cells]” value in series [3] came out at 15.3 ± 0.1 %/100.000 cells.
Turning to `N[C@H](CCC(Cc1ccc(OCC[18F])cc1)C(=O)O)C(=O)O` (stereo partly drawn) [[^18F]-16, (2R)-2-Amino-5-[4-(2-[^18F]fluoroethoxy)benzyl]hexanedioic acid], in the series with NCI-H460 tumor [2], the “Kidney (% ID/g at 1 h p.i.)” value was 3.4 ± 0.3 % ID/g, the “Liver (% ID/g at 1 h p.i.)” value is 3.3 ± 0.1 % ID/g, the “Pancreas (% ID/g at 1 h p.i.)” value was found to be 1.4 ± 0.1 % ID/g and the “Tumor (% ID/g at 1 h p.i.)” value came to 3.6 ± 0.6 % ID/g. Also, in the series on NCI-H460 tumor [2], the “Urine (% ID at 1 h p.i.)” value amounted to 74.5 ± 6.8 % ID, the T/Blood is recorded as 14.1 and the T/Muscle is listed as 54.2. Also, in the series on NCI-H460 tumor [4], the “Kidney (% ID/g at 1 h p.i.)” value worked out at 1.7 % ID/g, the “Liver (% ID/g at 1 h p.i.)” value amounted to 2.3 % ID/g, the “Tumor (Max % ID/g at 1 h p.i.)” value is recorded as 2.1 % ID/g and the “Tumor (Mean % ID/g at 1 h p.i.)” value is 0.8 % ID/g.
With `N[C@@H](C[C@H](Cc1ccc(OC[18F])cc1)C(=O)O)C(=O)O` [[^18F]-48, (4S)-4-{4-[(^18F)fluoromethoxy]benzyl}-L-glutamic acid], in the series with NCI-H460 tumor [2], the “Kidney (% ID/g at 1 h p.i.)” value is 1.8 ± 0.4 % ID/g, the “Liver (% ID/g at 1 h p.i.)” value is 0.2 ± 0.08 % ID/g, the “Pancreas (% ID/g at 1 h p.i.)” value came out at 0.8 ± 0.1 % ID/g and the “Tumor (% ID/g at 1 h p.i.)” value is 2.8 ± 1.4 % ID/g. In addition, in the series on NCI-H460 tumor [2], the “Urine (% ID at 1 h p.i.)” value is recorded as 79 ± 7.8 % ID, the T/Blood is on record as 23.3 and the T/Muscle was determined as 30.4. Besides, in the series on NCI-H460 tumor [4], the “Kidney (% ID/g at 1 h p.i.)” value was determined as 0.9 % ID/g, the “Liver (% ID/g at 1 h p.i.)” value came to 0.2 % ID/g, the “Tumor (Max % ID/g at 1 h p.i.)” value is 1.6 % ID/g and the “Tumor (Mean % ID/g at 1 h p.i.)” value is 0.8 % ID/g.

(Values after patent US9238631B2, “Radiolabeled amino acids for diagnostic imaging” (PIRAMAL IMAGING SA, priority 2011, dated 2016).)
